The values below come from US5047533A, “Acyclic purine phosphonate nucleotide analogs” (SRI International, priority 1990, dated 1991).

Series [1] concerns MA-104 cells. Kind of series: Cytotoxicity controls (maximum tolerated dose) in MA-104 cells. The format is cell-based, monkey. The following applies: Table 3 Test 2. The method, then: Continuous passaged monkey kidney (MA-104) cells were used for testing of herpes-type virus, with growth medium consisting of Minimum Essential Medium (MEM) supplemented with 0.1% NaHCO3 and […] gentamicin.
To a 96 well microtiter plate containing an established 24 hour monolayer of cells from which the medium has been decanted was added 0.1 ml of varying (one-half log10) concentrations of test compound, which incubated on the cell 15 minutes, after which 0.1 ml of virus in a concentration of 320 cell culture 50% infectious doses (CCID50)/0.1 ml was added. The plate was covered with plastic wrap and incubated at 37° C. Included with the test were toxicity controls (each concentration of compound+test medium in place of virus), virus controls (virus+test medium in place of compound) and cell controls (test medium in place of compound and virus). The cells were examined microscopically after 72 hours for evidence of cytotoxicity and for viral cytopathic effect (CPE). Vidarabine was run on the same plate in parallel. […] were added to the medium at a concentration of 2000 μg/ml for use as a positive control.
*Maximum tolerated dose, μg/ml.

Series [2] relates to HSV-1TK+. Description: In vivo guinea pig HSV-1TK+ lesion test, topical solution. The following applies: guinea pigs; for TK+ (average number of lesions): five days after treatment. As for the experimental part:
Compound 2 also was tested in vivo in guinea pigs as an agent against HSV-1TK^+. The animals were inoculated with the virus; 18 hours later Compound 2 at two concentrations (0.4% and 1-2% (saturated) solution in water) was administered, and five days later blister diameters at the point of inoculation were measured. A 5% solution of acyclovir or a 1.4% solution of poly(vinylalcohol) was used as control. Satellite lesions were measured, as well.

The test system of series [3] is cells. Kind of series: Cytotoxicity (maximum tolerated dose), control tests in 96-well microplates. The format is cell-based. Conditions: overall, Table 5. An excerpt: (§1) ^b Maximum tolerated dose: That dose causing approximately 50%
(§2) cytotoxic effects in cells, determined by the microscopic examination of
(§3) cells for sloughing, shape alteration, and granularity in separately run
(§4) control tests in 96well microplates.
(§5) The data on acyclovir were gathered from tests run in MRC-5 cells grown under agarose overlay, with plaques read 7 days after virus exposure.

Experiment in series [4]: as above
The format is cell-based. The following applies: Table 5; microscopic examination, separately run control tests; read-out: Approx. MTD (dose causing approximately 50% cytotoxic effects in cells).
From the text: as §1, §2, §3, §4, §5

[5] abbreviates: 1-2% (saturated) solution in water.

Values after ≈ are worked out from the molar mass of the structure shown. A value given as a limit tells only on which side of the number the result lay.

For `CCOP(=O)(O)CCCOCn1cnc2c(=O)[nH]c(N)nc21` [Compound 2, 9(3'-ethylphosphono-1'-propyloxymethyl)guanine], the “MTD (Maximum tolerated dose)” value in series [1] was over 1000 µg/mL. In series [2] (0.4% solution in water), the Satellite lesions is 11 and the “TK+ (average number of lesions)” value worked out at 2.1. For the same molecule, in series [2] (setting [5]), the Satellite lesions was found to be 6 and the “TK+ (average number of lesions)” value was determined as 0.9. For the same molecule, the “activity against HSV TK+ virus in vivo” value in series [2] (at least in saturated solution) was “has activity”. In addition, the “cytotoxicity relative to acyclovir” value in series [3] is reported as “approximately the same”. For the same molecule, the CC50 in series [4] is about 1000 µg/mL (≈ 3.02 mM).
